Experimental data from paper PMC6518372, “An enzymatically stable GIP/xenin hybrid peptide restores GIP sensitivity, enhances beta cell function and improves glucose homeostasis in high-fat-fed mice” (Diabetologia, 2016).
Marks after values point to notes of the source that are not given here.

Key:
BRIN-BD11 cells = experiment: In vitro insulin secretion from BRIN-BD11 cells; format: cell-based, rat; conditions: 20 min
Procedure: BRIN-BD11 cells were used to assess the insulin-releasing activity of test peptides, as described previously. This hybrid cell line (ECACC 10033003) was originally generated in-house by electrofusion of a primary culture of New England Deaconess Hospital (NEDH) rat pancreatic islets with RINm5F (a cell line derived from an NEDH rat insulinoma), and has been mycoplasma eradicated. For details of experimental conditions please see ESM Methods. Insulin was measured by radioimmunoassay. We assessed the impact of GIP and neurotensin receptors on (DAla^2)GIP/xenin-8-Gln-induced insulin secretion in BRIN-BD11 cells. Cells were incubated in 5.6 mmol/l glucose with (DAla^2)GIP/xenin-8-Gln (10^−6 mol/l) alone or in combination with the GIP receptor antagonist GIP(6-30)Cex-K^40[Pal] [32] (where Pal is palmitate) or the neurotensin receptor antagonist SR142948A (Sigma, Poole, UK), and insulin secretion determined as described above. In addition, to determine mechanisms, intracellular Ca^2+ was also measured in BRIN-BD11 cells following treatment with test peptides (10^−6 mol/l), using a Flexstation scanning fluorometer (FLIPR Calcium 5 assay kit; Molecular Devices, Sunnyvale, CA, USA), as described previously.
In vitro insulin release studies Cells were seeded at a density of 150,000 cells/well in 24-well plates (Nunc, Roskilde, Denmark) and allowed to attach overnight at 37 °C. Culture medium was removed and cells were pre-incubated in Krebs–Ringer bicarbonate buffer (containing 0.5% (w/v) BSA, pH 7.4) supplemented with 1.1 mmol/l glucose for 40 min at 37 °C. Following the pre-incubation, experiments (n=8) were performed in presence of glucose (5.6 or 16.7 mmol/l) with a […]
incubations, aliquots of assay buffer were collected from each well and stored at -20 °C prior to […]
(§1) Acute in vivo effects in lean mice For food intake studies, fasted (18 h) mice were given intraperitoneal (i.p) injections of peptides at a dose of 25, 100 or 250 nmol/kg bw. Mice were then allowed free access to normal chow for 180 mins and cumulative food intake measured. […]

lean control mice [1] = experiment: Acute cumulative food intake in lean mice; format: in vivo, mouse; conditions: 250 nmol/kg i.p., 18 h fasted lean mice, 180 min post injection, vs saline
Procedure: Animals Acute animal studies were conducted in male NIH Swiss mice (12-14 weeks old, Harlan Ltd, UK) maintained on a standard rodent maintenance diet (10% fat, 30% protein and 60% carbohydrate, Trouw Nutrition, UK). Prior to commencement of longer term studies, all animals, except lean controls that continued on rodent maintenance diet, were maintained on a high-fat diet (45% fat, 35% carbohydrate and 20% protein, Special Diet Services, UK) for 12 weeks. This diet […]
individually in an air-conditioned room at 22 ± 2 °C with a 12 h light:12 h dark cycle and had free access to food and water. Animal experiments were carried out in accordance with the UK Animals (Scientific Procedures) Act 1986.
as §1, with “measured. For glucose homeostasis and” for “measured.”

lean control mice [2] = experiment: Persistent glucose-lowering and insulin-releasing effects, peptide 4 h before glucose load; format: in vivo, mouse; conditions: 25 nmol/kg injected 4 h before i.p. glucose load 18 mmol/kg, non-fasted lean mice, vs saline
Procedure: Specific information on acute feeding, glucose homeostasis and insulin-secretory studies is given in ESM Methods. To assess the impact of GIP and neurotensin receptor activation on (DAla^2)GIP/xenin-8-Gln-induced glucose-lowering and insulin-secretory actions in mice, (DAla^2)GIP/xenin-8-Gln was administered by i.p. injection (25 nmol/kg body weight) in combination with glucose (18 mmol/kg) in the absence and presence of GIP(6-30)Cex-K^40[Pal] and SR142948A (both at 25 nmol/kg), and glucose and insulin were measured as described above. In a final series of experiments, test peptides (25 nmol/kg) or saline vehicle (0.9% wt/vol. NaCl) were injected 4 h before a glucose load (18 mmol/kg) in non-fasted mice and blood glucose and plasma insulin measured as above.

high-fat-fed mice [3] = experiment: Metabolic response to native GIP after 21 day treatment; format: in vivo, mouse; conditions: 25 nmol/kg twice daily for 21 days
Procedure: (§2) Twice-daily (09:30 and 17:30 hours) i.p. injections of saline vehicle, (DAla^2)GIP or (DAla^2)GIP/xenin-8-Gln hybrid (both at 25 nmol/kg) were administered for 21 days in high-fat-fed mice. Energy intake and body weight were monitored daily and non-fasting blood glucose and plasma insulin concentrations were assessed at 3 day intervals. On day 21, a non-fasted 24 h glucose profile was conducted. At the end of the treatment period, i.p. glucose tolerance (18 mmol/kg), biological response to GIP (18 mmol/kg glucose in combination with native GIP [25 nmol/kg], i.p.) and insulin sensitivity (15 U/kg; i.p.) tests were performed. Terminal analysis included measurement of total body fat and lean mass by dual-energy X-ray absorptiometry (DEXA) scanning (Piximus Densitometer; Inside Outside Sales, Fitchburg, WI, USA) and extraction of pancreatic tissue for analysis as detailed below.

high-fat-fed mice [4] = experiment: Insulin sensitivity test after 21 day treatment; format: in vivo, mouse; conditions: insulin 15 U/kg i.p., non-fasted high-fat-fed mice after 21 days at 25 nmol/kg twice daily
Procedure: as §2
Fig. 4 Effects of twice-daily administration of (DAla^2)GIP and (DAla^2)GIP/xenin-8-Gln on insulin sensitivity and pancreatic insulin content in high-fat-fed mice. […] Blood glucose was measured (a), area above the curve (AAC) was calculated using identical baseline subtraction for each group (b) and pancreatic insulin content was measured by RIA (c). […]

[5] = AUC 0–105 min after i.p. glucose 18 mmol/kg with GIP 25 nmol/kg, 18 h fasted high-fat-fed mice, mean ± SEM, 6–8 mice

CC[C@H](C)[C@H](NC(=O)[C@H](CO)NC(=O)[C@H](Cc1ccc(O)cc1)NC(=O)[C@H](CC(=O)O)NC(=O)[C@H](CO)NC(=O)[C@@H](NC(=O)[C@H](Cc1ccccc1)NC(=O)[C@@H](NC(=O)CNC(=O)[C@H](CCC(=O)O)NC(=O)[C@@H](C)NC(=O)[C@@H](N)Cc1ccc(O)cc1)[C@@H](C)O)[C@@H](C)CC)C(=O)N[C@@H](C)C(=O)N[C@@H](CCSC)C(=O)N[C@@H](CC(=O)O)C(=O)N[C@@H](CCCCN)C(=O)N[C@H](C(=O)N[C@@H](Cc1c[nH]cn1)C(=O)N[C@@H](CCC(N)=O)C(=O)N[C@@H](CCC(N)=O)C(=O)N[C@@H](CC(=O)O)C(=O)N[C@@H](Cc1ccccc1)C(=O)N[C@H](C(=O)N[C@@H](CC(N)=O)C(=O)N[C@@H](Cc1c[nH]c2ccccc12)C(=O)N[C@@H](CC(C)C)C(=O)N[C@@H](CC(C)C)C(=O)N[C@@H](C)C(=O)N[C@@H](CCC(N)=O)C(=O)N[C@@H](CCCCN)C(=O)NCC(=O)N[C@@H](CCCCN)C(=O)N[C@@H](CCCCN)C(=O)N[C@@H](CC(N)=O)C(=O)N[C@@H](CC(=O)O)C(=O)N[C@@H](Cc1c[nH]c2ccccc12)C(=O)N[C@@H](CCCCN)C(=O)N[C@@H](Cc1c[nH]cn1)C(=O)N[C@@H](CC(N)=O)C(=O)N[C@H](C(=O)N[C@H](C(=O)N[C@@H](CCC(N)=O)C(=O)O)[C@@H](C)O)[C@@H](C)CC)C(C)C)[C@@H](C)CC [(DAla^2)GIP]
Peptide-mediated insulin secretion in presence of GIP receptor antagonist GIP(6-30)Cex-K^40[Pal] (BRIN-BD11 cells; peptide 10^−6 mol/l, antagonist 10^−6 mol/l, 5.6 mmol/l glucose): completely annulled | Insulin release from BRIN-BD11 cells (BRIN-BD11 cells; peptide 10^−8 mol/l, 5.6 or 16.7 mmol/l glucose, vs respective glucose controls): significant (p < 0.01 to p < 0.001) increase in insulin release | Cumulative food intake (lean control mice [1]): all peptides except (DAla^2)GIP induced significant (p < 0.05 to p < 0.01) reductions | Overall AUC for blood glucose after glucose challenge (lean control mice [2]): significantly reduced the overall AUC for blood glucose (p < 0.05) | Plasma insulin AUC after glucose challenge (lean control mice [2]): increased plasma insulin AUC (p < 0.05) | Decrease of overall blood glucose AUC in response to native GIP compared with saline-treated control (high-fat-fed mice [3]; high-fat-fed mice, glucose 18 mmol/kg with GIP 25 nmol/kg): 36% | Metabolic response to GIP: Blood glucose AUC (high-fat-fed mice [3]; [5]): 1029.5 ± 138.0 mmol·min/L | Metabolic response to GIP: Plasma insulin AUC (high-fat-fed mice [3]; [5]): 20,308 ± 3805**^,††† pmol/l × min | Individual blood glucose levels following exogenous insulin (high-fat-fed mice [4]): reduced, albeit non-significantly | Overall glucose-lowering effect of insulin (area above the curve) (high-fat-fed mice [4]; vs control high-fat mice): significantly (p < 0.001) improved
